Assay results taken from Sander's compilation of Henry's law constants (doi:10.1021/je025545i).

Assay: Henry solubility constant Hcp at 298.15 K (mol/(m3 Pa))
Conditions: reference: Destaillats and Charles (2002)

SMILES | Henry solubility constant Hcp
Fc1c(F)c(F)c(CO/N=C/c2ccccc2)c(F)c1F [PFBHA-benzaldehyde] | 0.005
CC/C(C)=N\OCc1c(F)c(F)c(F)c(F)c1F [PFBHA-butanone] | 0.0047
C/C=C/C=N/OCc1c(F)c(F)c(F)c(F)c1F [PFBHA-crotonaldehyde] | 0.0068
CCCCCCCCC/C=N/OCc1c(F)c(F)c(F)c(F)c1F [PFBHA-decanal] | 0.024
CC=NOCc1c(F)c(F)c(F)c(F)c1F [PFBHA-ethanal] | 0.019
Fc1c(F)c(F)c(CON=CC=NOCc2c(F)c(F)c(F)c(F)c2F)c(F)c1F [PFBHA-ethanedial] | 0.016
c1ccc(-c2ccccc2)cc1 [biphenyl] | 0.034
Cc1ccccc1 [methylbenzene] | 0.002

Now from value to molecule:

Henry solubility constant Hcp | SMILES
0.0058 | CCCCC/C=N/OCc1c(F)c(F)c(F)c(F)c1F [PFBHA-hexanal]
0.016 | C=NOCc1c(F)c(F)c(F)c(F)c1F [PFBHA-methanal]
0.0079 | CCCCCCC/C=N/OCc1c(F)c(F)c(F)c(F)c1F [PFBHA-octanal]
0.011 | CC(C)=NOCc1c(F)c(F)c(F)c(F)c1F [PFBHA-propanone]
0.0095 | C=C/C=N/OCc1c(F)c(F)c(F)c(F)c1F [PFBHA-propenal]
0.024 | c1ccc2ccccc2c1 [naphthalene]
